Data published in patent publication US20220016200A1, “PHARMACEUTICAL COMPOSITION FOR THE TREATMENT OF CYSTIC FIBROSIS” (GALENUS G.H. AG, priority 2018, published 2022).
Where two headings read alike, the source gives them in different places. Bridge positions count the residues as written; N and C are the ends. Square brackets hold non-standard residues; d marks the D form. Peptide text beside a SMILES is read from it. * marks the point of attachment. Heptanoyl(5-Me) = CCC(C)CCCC(=O)*; Dab = NCC[C@H](N)C(=O)O

Tests used:
A. haemolyticus 1655843 = test: Checkerboard fusidic acid (FD) and colistin sulfate (CS), MIC/FIC and MBC/FBC; format: cell-based, Acinetobacter haemolyticus; settings: agent alone, CAMHB, 1*10^6 CFU/ml
Experimental: (§1) Checkerboard assays between fusidic acid (FD) and colistin sulfate (CS) with a bacterial load 5(1-10)*10^5 CFU/ml in cationic adapted Mueller Hinton broth (CAMHB). • a. Antimicrobial stock solutions were prepared using sterile distilled water; • b. CS was added along the ordinate; FD was added along the abscissa to 96 well, flat bottom, polystyrene panels with no treatment. Colistin alone was tested in triplicates; • c. Serial 2-fold dilutions starting with 640 […] CS and 640 μg/ml FD were made; 15 μl volume of the serial dilutions were added for each agent to the appropriate wells—final volume at 30 μl; • d. For each agent tested alone an additional 15 μl media was added to the well. 30 μl were added in control wells where none of the agent was tested. The negative control well contains 150 μl media without any additions; • e. From an overnight bacterial culture in tryptic soy broth, 100 μL was added to 10 mL of fresh tryptic soy broth. This was then incubated at 37° C. for 1.5 hour at 180 rpm; • f. Bacteria in 120 μl CAMHB were added to each well (end concentration 5(1-10)*10^5 CFU/ml); • g. Plates were incubated at 37° C. in an ambient air incubator for 24 h • h. Turbidity at OD600 is determined with a plate photometer • i. By using a one-time inoculator 3 μl from each well of the 96-well plate were transferred to three blood agar plates. The plates were incubated over night at 37° C. in an ambient air incubator; • j. MIC values are defined as lowest concentration which restricts bacterial growth to OD600≤0.1; • k. MBC values were determined by visual reading the lowest concentration which inhibits 99.9% of the growth of bacteria in the wells; • l. Determination of the fractional inhibitory concentration (FIC) index and fractional bactericidal concentration (FBC) index and characterization of antimicrobial interactions was assessed;
(§2) FIC calculation was carried out as: (MIC of drug A, tested in combination)/(MIC of drug A, tested alone)+(MIC of drug B, tested in combination)/(MIC of drug B, tested alone). FBC calculation was carried out just as well;
(§3) Interactive categories were calculated from checkerboard analysis using MIC results from testing each agent alone and MIC results from the combination wells adjacent to the wells with growth in them.
(§4) Determination of the fractional inhibitory concentration (FIC) index and fractional bactericidal concentration (FBC) index and characterization of antimicrobial interactions was assessed:
(§5) (ii) Indifference; FIC/FBC>0.5 to <4.0
(§6) (iii) Antagonism; FIC/FBC≥4.0
c. Acinetobacter haemolyticus 1655843 (IHMA), colistin resistant (3xCS>16/>16-64/>64)

A. guillouiae 1285286 = test: as above; format: cell-based, Acinetobacter guillouiae
Experimental: as §1, §2, §3, §4, §5, §6
d. Acinetobacter guillouiae 1285286 (IHMA), colistin resistant (2xCS 2/4)

[1] = system: A. nosocomialis strain (1204194 IHMA); test: Pneumonic mouse model, colistin susceptible strain; format: in vivo, Acinetobacter nosocomialis
Experimental: One colistin susceptible (MIC 1 mg/L) A. nosocomialis strain (1204194 IHMA) and one colistin resistant (MIC 4 mg/L) A. nosocomialis strain (1461911 IHMA) are used. […] Fresh brain heart infusion broth (Merck, Darmstadt, Germany) bacterial cultures, in an aerobic atmosphere in the logarithmic growth phase (4-5 hours) at 37° C., are adjusted to a concentration of 1.0×10^6 colony forming units (CFU)/mL, as verified by both spectrophotometry (OD600 0.01-0.02 nm) and colony counting.
A pneumonic mouse model was used. 8- to 12-week-old, specific-pathogen free, male or female BALB/c mice, with 25-35 g in weight, are used for the study Animals have free access to food and water except during experimental procedures. All studies are performed in accordance with the ethical guidelines for the care and use of laboratory animals, and the protocol is approved by an independent ethical commission.
For inoculation, fresh inocula are prepared for each experiment from frozen stocks of the two A. nosocomialis isolates (1204194 and 1461911 IHMA). Broth cultures of freshly plated A. nosocomialis bacteria are grown to logarithmic phase overnight to an absorbance of 0.3 at 630 nm and diluted to 10^7 CFU/ml in saline. Mice are anesthetized by intraperitoneal (i.p.) injection of 12.5 mg/kg (5 μl) xylazine and 80 mg/kg (25 μl) ketamine and then inoculated intranasally with 0.05 ml of this bacterial suspension. […]

`CCC(C)CCCC(=O)N[C@@H](CCN)C(=O)N[C@H](C(=O)N[C@@H](CCN)C(=O)N[C@H]1CCNC(=O)[C@H]([C@@H](C)O)NC(=O)[C@H](CCN)NC(=O)[C@H](CCN)NC(=O)[C@H](CC(C)C)NC(=O)[C@@H](CC(C)C)NC(=O)[C@H](CCN)NC1=O)[C@@H](C)O` (stereo partly drawn) [CS, colistin sulphate] ({Heptanoyl(5-Me)}-[Dab]T[Dab][Dab][Dab][dL]L[Dab][Dab]T; lactam 4-C) was tested, and the MIC (A. haemolyticus 1655843; A. haemolyticus 1655843, 24 h) was 64 mg/1l, the MBC (A. haemolyticus 1655843; Acinetobacter haemolyticus, 1655843, A. haemolyticus 1655843) was > 64 µg/mL and the MIC (A. guillouiae 1285286; A. guillouiae 1285286, agent alone, CAMHB, 1*10^6 CFU/ml, 24 h) was 2 mg/1l. The MBC (A. guillouiae 1285286; Acinetobacter guillouiae, 1285286, A. guillouiae, agent alone, CAMHB, 1*10^6 CFU/ml, read-out: MBC) was 4 µg/mL, the MBC (A. guillouiae 1285286; organism list of Example 3, Acinetobacter guillouiae 1285286, 2x, read-out: Colistin CS MBC) was 4 µg/mL and the MIC (A. guillouiae 1285286; organism list of Example 3, Acinetobacter guillouiae 1285286, 2x, read-out: Colistin CS MIC) was 2 µg/mL. For the same molecule, the “mice that survive until day 3” value ([1]; BALB/c mice, 3 per group, colistin susceptible strain, one intramuscular dose 24 hours after inoculation, combination groups stated together for both strains (6 mice)) was 2/3 and the “numbers of A. nosocomialis in the lung tissue” value ([1]; day 3, confirmed by qRT-PCR, two surviving monotherapy mice compared with all mice treated with colistin sulphate and teicoplanin or colistin sulphate and fusidic acid) was “significantly higher numbers”.
